Measured values published in PMC11822212, “High-throughput screening identifies Aurora kinase B as a critical therapeutic target for Merkel cell carcinoma” (Nature Communications, 2025).
Where a name gives a salt, the structure may show the parent alone. Read-outs that look alike come from different tables or passages of the source.

How the values were obtained:
MCC13 cells (VN-MCC) = test: qHTS cell viability (CellTiter-Glo, 72 h; primary and follow-up small molecule screen); type: cell-based, human
MCC26 cells (VN-MCC) = test: as above; type: cell-based, human
UISO cells (VN-MCC) = test: as above; type: cell-based, human
WAGA cells (VP-MCC) = test: as above; type: cell-based, human
MKL-1 cells (VP-MCC) = test: as above; type: cell-based, human
MKL-2 cells (VP-MCC) = test: as above; type: cell-based, human
HACAT cells = test: qHTS cell viability (CellTiter-Glo, 72 h; primary screen), control cell line; type: cell-based, human
HEK293T cells = test: as above; type: cell-based, human
NIH-3T3 cells = test: as above; type: cell-based, mouse
CRL-7250 cells = test: as above; type: cell-based
[1] = system: MCC cell lines (WAGA, MKL-1, MKL-2, MCC13, MCC26, UISO); test: qHTS cell viability, all six MCC cell lines as a group (mean AUC, MCC.avg); type: cell-based, human
[2] = system: VP-MCC cell lines (WAGA, MKL-1, MKL-2); test: qHTS cell viability, VP-MCC cell lines as a group (mean AUC, VP.MCC.avg); type: cell-based, human
[3] = system: VN-MCC cell lines (MCC13, MCC26, UISO); test: qHTS cell viability, VN-MCC cell lines as a group (mean AUC, VN.MCC.avg); type: cell-based, human
[4] = system: control cell lines (HACAT, HEK293T, CRL-7250, NIH-3T3); test: qHTS cell viability, control cell lines as a group (mean AUC, Control.avg); type: cell-based
[5] = system: six MCC cell lines and four control cell lines; test: qHTS cell viability, all 10 cell lines screened; type: cell-based
[6] = MIPE library, 11-point DRC, sheet S2E
[7] = MIPE library, 11-point DRC, control cell line, sheet S2E

CN1CCCC(n2nc(Cc3ccc(Cl)cc3)c3ccccc3c2=O)CC1 (stereo not shown) [Azelastine hydrochloride]
MCC13_AUC (MCC13 cells (VN-MCC); [6]): 451.766 | Area under the dose-response curve (AUC) MCC13 Replicate 1 (MCC13 cells (VN-MCC); follow-up screen, MCC13, replicate 1): 500.3 | Area under the dose-response curve (AUC) MCC13 Replicate 2 (MCC13 cells (VN-MCC); follow-up screen, MCC13, replicate 2): 476.4 | Area under the dose-response curve (AUC) MCC13 Replicate 3 (MCC13 cells (VN-MCC); follow-up screen, MCC13, replicate 3): 479.3 | MCC26_AUC (MCC26 cells (VN-MCC); [6]): 431.003 | Area under the dose-response curve (AUC) MCC26 Replicate 1 (MCC26 cells (VN-MCC); follow-up screen, MCC26, replicate 1): 450.4 | Area under the dose-response curve (AUC) MCC26 Replicate 2 (MCC26 cells (VN-MCC); follow-up screen, MCC26, replicate 2): 432.6 | Area under the dose-response curve (AUC) MCC26 Replicate 3 (MCC26 cells (VN-MCC); follow-up screen, MCC26, replicate 3): 475.6 | UISO_AUC (UISO cells (VN-MCC); [6]): 426.293 | Area under the dose-response curve (AUC) UISO Replicate 1 (UISO cells (VN-MCC); follow-up screen, UISO, replicate 1): 472.1 | Area under the dose-response curve (AUC) UISO Replicate 2 (UISO cells (VN-MCC); follow-up screen, UISO, replicate 2): 488.6 | Area under the dose-response curve (AUC) UISO Replicate 3 (UISO cells (VN-MCC); follow-up screen, UISO, replicate 3): 481.1 | WAGA_AUC (WAGA cells (VP-MCC); [6]): 268.398 | Area under the dose-response curve (AUC) WAGA Replicate 1 (WAGA cells (VP-MCC); follow-up screen, WAGA, replicate 1): 515.6 | Area under the dose-response curve (AUC) WAGA Replicate 2 (WAGA cells (VP-MCC); follow-up screen, WAGA, replicate 2): 481.7 | Area under the dose-response curve (AUC) WAGA Replicate 3 (WAGA cells (VP-MCC); follow-up screen, WAGA, replicate 3): 478.9 | MKL1_AUC (MKL-1 cells (VP-MCC); [6]): 341.965 | Area under the dose-response curve (AUC) MKL-1 Replicate 1 (MKL-1 cells (VP-MCC); follow-up screen, MKL-1, replicate 1): 494.5 | Area under the dose-response curve (AUC) MKL-1 Replicate 2 (MKL-1 cells (VP-MCC); follow-up screen, MKL-1, replicate 2): 511.5 | Area under the dose-response curve (AUC) MKL-1 Replicate 3 (MKL-1 cells (VP-MCC); follow-up screen, MKL-1, replicate 3): 475.2 | MKL2_AUC (MKL-2 cells (VP-MCC); [6]): 320.643 | Area under the dose-response curve (AUC) MKL-2 Replicate 1 (MKL-2 cells (VP-MCC); follow-up screen, MKL-2, replicate 1): 463.4 | Area under the dose-response curve (AUC) MKL-2 Replicate 2 (MKL-2 cells (VP-MCC); follow-up screen, MKL-2, replicate 2): 469.5 | Area under the dose-response curve (AUC) MKL-2 Replicate 3 (MKL-2 cells (VP-MCC); follow-up screen, MKL-2, replicate 3): 473.5 | HACAT_AUC (HACAT cells; [7]): 463.226 | HEK293T_AUC (HEK293T cells; [7]): 458.798 | NIH3T3_AUC (NIH-3T3 cells; [7]): 471.996 | CRL7250_AUC (CRL-7250 cells; [7]): 443.828 | MCC_Avg_AUC ([1]; MIPE library, mean AUC of six MCC cell lines, sheet S2E): 373.345 | Control-VP-MCC ([2]; MIPE library, Control AUC minus VP-MCC AUC (therapeutic window), sheet S2E): 149.127 | VP-MCC_Avg_AUC ([2]; MIPE library, mean AUC of VP-MCC cell lines, sheet S2E): 310.335 | Control-VN-MCC ([3]; MIPE library, Control AUC minus VN-MCC AUC (therapeutic window), sheet S2E): 23.1078 | VN-MCC_Avg_AUC ([3]; MIPE library, mean AUC of VN-MCC cell lines, sheet S2E): 436.354 | Control_Avg_AUC ([4]; MIPE library, mean AUC of control cell lines, sheet S2E): 459.462 | Control-MCC ([5]; MIPE library, Control AUC minus MCC AUC (therapeutic window), sheet S2E): 86.1174

N[C@@H](Cc1ccc(N(CCCl)CCCl)cc1)C(=O)O [Melphalan]
MCC13_AUC (MCC13 cells (VN-MCC)): 467.949 | MCC26_AUC (MCC26 cells (VN-MCC)): 465.715 | UISO_AUC (UISO cells (VN-MCC)): 405.245 | WAGA_AUC (WAGA cells (VP-MCC)): 417.577 | MKL1_AUC (MKL-1 cells (VP-MCC)): 386.049 | MKL2_AUC (MKL-2 cells (VP-MCC)): 377.097 | HACAT_AUC (HACAT cells): 448.936 | HEK293T_AUC (HEK293T cells): 460.279 | NIH3T3_AUC (NIH-3T3 cells): 465.754 | CRL7250_AUC (CRL-7250 cells): 448.797 | MCC_Avg_AUC [1]: 419.939 | Control-VP-MCC [2]: 62.3672 | VP-MCC_Avg_AUC [2]: 393.574 | Control-VN-MCC [3]: 9.639 | VN-MCC_Avg_AUC [3]: 446.303 | Control_Avg_AUC [4]: 455.942 | Control-MCC [5]: 36.0029
